What all share (format): in vivo
Data set [1] deals with DKC 53-33 corn hybrid (NK 603 event). Nature of the data set: Greenhouse glyphosate/PSII inhibitor injury assay, Example 2. The settings on record: single application, treated at 2 leaves unfolded (GS 12). The protocol:
(§1) Two corn seeds were planted one inch deep per 3.5×3.5 inch plastic pot filled with commercial potting mix (Redi-earth). The potting mix was supplemented with Osmacote™ 14-14-14 slow release fertilizer at 100 gm/ft3 to optimize growth. Pots were then placed in a greenhouse (25 C day/19 C night, 14 hour day) and water was supplied through subirrigation. Plants were allowed to grow to the stage where 3 leaves were unfolded (6-9 days after planting, approximate growth stage of GS 13) prior to the application of glyphosate and photosystem II inhibitor.
(§2) Herbicide treatments consisted of application of glyphosate and PSII inhibitor. Application rates for glyphosate (Roundup UltraMAX, Monsanto, St. Louis) included: 840 gm/ha; 1680 gm/ha; and 3360 gm/ha (i.e., 0.75 lbs/A; 1.5 lbs/A; and 3.0 lbs/A). Application rates for linuron (Lorox, DuPont) included 56 gm/ha; 112 gm/ha; and 224 gm/ha. Application rates for metribuzin (Sencor, Bayer) included 56 gm/ha; 112 gm/ha; and 224 gm/ha. Treatments were broadcast applied in a research track sprayer utilizing an even flat fan spray tip. Plants were returned to the greenhouse following applications. Growth inhibition was measured 10 days after treatment (DAT). […] Growth reduction can be measured about 7-10 DAT by direct or visual estimation (0=no growth reduction, 100=complete growth reduction).
(§3) Roundup Ready corn hybrids tested were RX 686Roundup Ready (GA 21 event) and DKC 53-33(NK 603 event). Growth of plant material and treatment regime was as described in Example 1, except plants were allowed to grow to the stage where 2 leaves were unfolded (approximately GS 12) prior to the application of glyphosate and photosystem II inhibitor. Growth inhibition was measured 10 days after treatment (DAT).

Data set [2] concerns RX 686 Roundup Ready corn hybrid (GA 21 event). Described as above. The settings on record: single application, treated at 2 leaves unfolded (GS 12). How it is done:
as §1, §2, §3

For data set [3], the system named is NK 603 corn event. How it is done: (§4) The glyphosate tolerance of RoundUp Ready corn events NK 603 and GA 21 were characterized in field trials. Corn was planted in 36 inch rows in plots of 4 rows by 30 ft with the two center rows being harvested. The study comprised 22 locations with 4 replicates of each treatment per location and the data were pooled across locations. Corn plants were treated with glyphosate at two consecutive developmental ages of V4 and V8. Glyphosate application rates were 0.75, 1.5, and 2.23 pounds per acre (lbs/A). Application volume was 10 gallons/acre. […] Data for chlorosis, malformed leaves, and growth reduction was collected at 22 locations. Also, at harvest of mature corn plants, the yield percentage and grain moisture percentage were assessed. Data for yield and grain moisture was collected at harvest at 19 locations and expressed as the mean percentage yield or moisture with respect to controls.

In data set [4] the test system is GA 21 corn event. The protocol:
as §4

For data set [5], the system named is GA 21 corn event. To be noted: for % Yield / % Grain Moisture: harvest, 19 locations.
The subject of data set [6] is NK 603 corn event. The source holds these as a separate data set.
Where [7] appears, read: NK 603, glyphosate rate 0.75/0.75 (lbs/A) at V4/V8, 22 locations.
Setting [8] is: NK 603, glyphosate rate 1.5/1.5 (lbs/A) at V4/V8, 22 locations.
The mark [9] stands for this setting: NK 603, glyphosate rate 1.5/1.5 at V4/V8, mean with respect to controls, harvest, 19 locations.
The mark [10] stands for this setting: glyphosate rate 0.75/0.75 (lbs/A) at V4/V8, 22 locations.
[11] abbreviates: glyphosate rate 0.75/0.75 at V4/V8, mean with respect to controls, harvest, 19 locations.
Where [12] appears, read: glyphosate rate 1.5/1.5 (lbs/A) at V4/V8, 22 locations.
The mark [13] stands for this setting: glyphosate rate 1.5/1.5 at V4/V8, locations with injury greater than 9%.
Where [14] appears, read: glyphosate rate 2.25/2.25 at V4/V8, locations with injury greater than 9%.
Where [15] appears, read: glyphosate rate 2.25/2.25 (lbs/A) at V4/V8, 22 locations.
[16] abbreviates: glyphosate rate 2.25/2.25 at V4/V8, mean with respect to controls.
The mark [17] stands for this setting: glyphosate rate 2.25/2.25 at V4/V8, mean with respect to controls, harvest, 19 locations.

Like-named read-outs stand apart in the source and are kept apart here.

As for `O=C(O)CNCP(=O)(O)O` [glyphosate, N-phosphonomethylglycine], the crop injury entry in data set [1] and in data set [2] was “did not produce any discernable crop injury” each time. In addition, the “% Chlorosis 10 DAT: number of locations exhibiting injury greater than 9%” value in data set [3] (setting [7]) was “None”; in data set [3] (setting [8]), “None”; in data set [4] (setting [10]) it was “None”; in data set [5] (setting [12]) it was 3; in data set [5] (setting [15]), 3; in data set [6] (setting [15]), 3. Further, the “% Malform 10 DAT: number of locations exhibiting injury greater than 9%” value in data set [3] (setting [7]) is reported as “None”; in data set [4] (setting [10]) it was “None”; in data set [5] (setting [12]), 5; in data set [5] (setting [15]), 6; in data set [6] (setting [12]), 3; in data set [6] (setting [15]) it was 6. For the same compound, the “% Yield” value in data set [3] (NK 603, glyphosate rate 0.75/0.75 at V4/V8, mean with respect to controls, harvest, 19 locations) is 103.3%; in data set [3] (setting [9]) it was 99.4%; in data set [4] (glyphosate rate 1.5/1.5 at V4/V8, mean with respect to controls, harvest, 19 locations), 97.8%; in data set [5] (glyphosate rate 0.75/0.75 at V4/V8, mean with respect to controls), 101.8%; in data set [5] (setting [16]) it was 90.8%; in data set [6] (setting [17]), 96.6%. In addition, the “% Growth Reduction 30 DAT: number of locations exhibiting injury greater than 9%” value in data set [3] (setting [8]) is recorded as “None”; in data set [4] (setting [12]) it was 1; in data set [5] (setting [10]) it was “None”; in data set [5] (setting [15]), 4; in data set [6] (setting [10]) it was “None”; in data set [6] (setting [15]), 2. Besides, the “% Malform 10 DAT: percentage range of observed injury” value in data set [3] (NK 603, glyphosate rate 1.5/1.5 at V4/V8, locations with injury greater than 9%) is 10-11%; in data set [5] (setting [13]), 11-16%; in data set [5] (setting [14]) it was 10-33%; in data set [6] (setting [14]), 11-19%. The “% Grain Moisture” value is given as 101.7% in data set [3] (setting [9]); 100.7% in data set [4] (setting [11]); 101.0% in data set [5] (glyphosate rate 1.5/1.5 at V4/V8, mean with respect to controls); 101.6% in data set [5] (setting [16]); 100.2% in data set [6] (setting [11]); 103.1% in data set [6] (setting [17]). Moreover, the injury result in data set [3] (glyphosate applications up to 3360 gm/ha, even applied sequentially, NK 603 event (e.g. DKC 53-33 hybrid)) is “no injury”. Also, the “% Growth Reduction 10 DAT: percentage range of observed injury” value is on record as 10-14% in data set [4] (setting [13]), 11-30% in data set [5] (setting [14]) and 10-19% in data set [6] (setting [14]). For the same compound, the “% Growth Reduction 30 DAT: percentage range of observed injury” value in data set [4] (setting [13]) is 11%; in data set [4] (setting [14]), 10-13%; in data set [6] (setting [14]), 11-15%. Moreover, the figures for the “% Chlorosis 10 DAT: percentage range of observed injury” value in data set [4] (setting [14]), in data set [5] (setting [13]) and in data set [6] (setting [14]) were 11-21%, 10-14% and 11-19%, respectively. For the same compound, the “% Growth Reduction 10 DAT: number of locations exhibiting injury greater than 9%” value in data set [5] (setting [10]) is “None”; in data set [5] (setting [12]), 5; in data set [5] (setting [15]), 7; in data set [6] (setting [10]) it was “None”; in data set [6] (setting [12]), “None”; in data set [6] (setting [15]), 3.
In the case of `CON(C)C(=O)Nc1ccc(Cl)c(Cl)c1` [linuron], the crop injury entry in data set [1] and in data set [2] was “did not produce any discernable crop injury” each time.
Regarding `CSc1nnc(C(C)(C)C)c(=O)n1N` [metribuzin], the crop injury entry in data set [1] and in data set [2] was “did not produce any discernable crop injury” throughout.

The record behind these values is patent US20060265780A1, “Interaction of glyphosate with photosystem II inhibitor herbicides as a selection tool for roundup ready events” (Monsanto Technology LLC, priority 2005, published 2006).
